Results on one compound are retold here after patent publication EP4360627A1, “TREATMENT OF OSTEOARTHRITIS WITH COMT INHIBITORS” (Institut National de la Santé et de la Recherche Médicale …, priority 2022, dated 2024).

Each structure is given as a SMILES string.

For test [1], the system named is modèle murin d'arthrose (MIA). In words: Knee histology (safranine-O / Fast Green) in murine osteoarthritis model (MIA). The class given is in vivo, souris C57BL7. The conditions noted are these: intra-articular injections at 1, 2, 3 and 4 weeks after induction; histology at 8 weeks; versus MIA+vehicule; figure 5. An excerpt: (§1) Cette étude a été autorisée par le ministère de l'Enseignement Supérieur, de la Recherche et de l'Innovation après avis favorable du comité d'éthique locale, CENOMEXA (agrément n°B14118015). L'étude est réalisée au sein d'une animalerie agrée (UMS-CYCERON). Des souris C57BL7 mâles, âgées de 10 semaines ont été utilisés. Les souris étaient placées par cage de 8, en cycle inversé, nourriture et eau disponible ad libidum. L'état de santé de chaque souris était évalué quotidiennement.
(§2) Les injections intra-articulaires (MIA ou tolcapone) ont également été réalisées sous anesthésie générale. Après un repérage clinique du ligament patellaire, les injections sont faites par voie intra articulaire du genou après passage du ligament patellaire à l'aiguille 27 Gauge.
Les articulations sont placées dans une solution de fixation (formaldehyde 37%, PBS) pendant 3 jours, puis décalcifié à l'aide d'Osteosoft pendant 48h. Ensuite, les articulations sont conservées à -80°C dans l'Optimal Cutting Temperature compound (OCT). Des coupes de 10 µm d'épaisseur ont été réalisées à -25°C à l'aide d'un Cryostat (CM 3050 S, Leica BIOSYSTEMS, France), puis montées sur des lames de microscopies SuperFrost®. Les lames sont ensuite colorées au Fast Green puis à la safranine-O. La safranine-O permet de mettre en évidence les composants du cartilage articulaire. […]

The test system of test [2] is modèle murin d'arthrose (MIA). Briefly: Von Frey filament test (mechanical allodynia) in murine osteoarthritis model (MIA). The conditions noted are these: intra-articular injections at 1, 2, 3 and 4 weeks after induction of osteoarthritis; arthritic paw relative to contralateral paw; figure 4B. The class given is in vivo, souris C57BL7.
Text: as §1, §2
L'allodynie (douleur déclenchée pour un stimulus qui est normalement indolore) mécanique est évaluée par le test des filaments de Von Frey (BIOSEB In Vivo Research Instruments®). Ce test repose sur le principe selon lequel lorsque l'extrémité du filament (de longueur et de diamètre donnés) est appliquée perpendiculairement, la force exercée par le filament augmente jusqu'à ce que le filament fléchisse. Au-delà, la force exercée par le filament reste constante. Pour ce test, les souris sont placées dans une cage individuelle, sur une grille. Une période d'habituation de 30 minutes était requise avant le début du test. […]

The test system of test [3] is chondrocytes articulaires humains. In words: RT-PCR mRNA expression in IL-1β-stimulated human articular chondrocytes. The conditions noted are these: IL-1β 1ng/mL, 48h, increasing doses of tolcapone, mRNA normalised to RPL13A. The class given is cell-based. An excerpt: Les cellules ont été obtenus à partir de déchets opératoires selon la réglementation en vigueur (protocole approuvé par le comité de protection des personnes (CPP) Nord-Ouest III). Après la signature du consentement libre et éclairé par les patients, des têtes fémorales, des membranes synoviales et de la moelle osseuse sont récupérées à l'issue d'opération d'arthroplastie de la hanche chez des patients arthrosiques.
Les têtes fémorales sont disséquées et des copeaux de cartilages sont réalisés. Les chondrocytes sont libérés par digestion à la pronase de type XIV (2 mg/ml pendant 15 minutes; Sigma), suivie d'une digestion à la collagénase de type II (2 mg/ml pendant une nuit; Gibco). Les cellules sont ensuite ensemencées à 4×10^4 cellules/cm^2 dans du milieu Eagle modifié de Dulbecco (DMEM) supplémenté avec 10% de sérum de veau foetal (SVF) avec un cocktail d'antibiotiques. Elles sont ensuite incubées à 37°C dans une atmosphère humidifiée contenant 5% de CO2.
Pour les trois types cellulaires, les cellules ont été amplifiées dans une enceinte humide à 37°C sous 5% de CO2. Les milieux de culture sont changés 2 à 3 fois par semaine. Un test mycoplasme a été réalisé afin de vérifier qu'elles ne sont pas contaminées. […]

As for `Cc1ccc(C(=O)c2cc(O)c(O)c([N+](=O)[O-])c2)cc1` [tolcapone], in test [1], the “dommages articulaires (étude histologique)” value was “réduit les dommages articulaires” and the “dégradation du cartilage (étude histologique)” value was “très fortement limité la dégradation du cartilage”. Further, the “douleur induite (Von Frey)” value in test [2] was “réduit nettement la douleur induite”. In addition, in test [3] (figure 3A), the “expression de gènes impliqués dans le catabolisme (tel que MMP13)” value is “réduit notamment l'expression de gènes impliqués dans le catabolisme (tel que MMP13)”. Moreover, in test [3] (figure 3B), the “expression de gènes impliqués dans l'inflammation (tel que l'IL-6)” value is “réduit notamment l'expression”.
